Data: US6503923B1, “Haloalkoxy imidazonaphthyridines” (ALTANA Pharma AG, priority 1999, dated 2003)

Assays:
[1] = tested on: pentagastrin-stimulated acid secretion of perfused rat stomachs; assay: Antisecretory action in perfused rat stomachs (pentagastrin-stimulated acid secretion in vivo); conditions: anesthetized CD rat, female, dose 3 μmol/kg i.v., perfused stomach
Text: Testing of the Antisecretory Action in Perfused Rat Stomachs
The influence of the compounds according to the invention after intravenous administration on the pentagastrin-stimulated acid secretion of perfused rat stomachs in vivo is shown in Table A which follows.
The abdomen of anesthetized rates (CD rat, female, 200-250 g; 1.5 g/kg i.m. urethane) was opened after tracheotomy by means of a median upper abdominal incision and a PVC catheter was fixed transorally in the esophagus and another via the pylorus such that the ends of the tubes just projected into the gastric lumen. The catheter leading from the pylorus led outwards into the right abdominal wall through a side opening.
After thorough rinsing (about 50-100 ml), warm physiological NcCl solution (37° C.) was continuously passed through the stomach (0.5 ml/min, pH 6.8-6.9, Braun-Unita I). The pH (pH meter 632, glass electrode EA 147; φ=5 mm, Metrohm) and, by titration with a freshly prepared 0.01 N NaOH solution to pH 7 (dosimat 665 Metrohm), the secreted HCl were determined in the effluent, in each case collected at an interval of 15 minutes.
The gastric secretion was stimulated by continuous infusion of […] (=1.65 ml/h) of i.v. pentagastrin (left femoral vein) about 30 min after the end of the operation (i.e. after determination of 2 preliminary fractions). […]

Q: What does the source list for `Cc1nc2c3c(ccn2c1C)[C@@H](OCC(F)(F)F)[C@H](O)[C@@H](c1ccccc1)N3` [Example 1, (7R, 8R, 9R)-2,3-Dimethyl-8-hydroxy-7-(2,2,2-trifluoroethoxy)-9-phenyl-7,8,9,10-tetra-hydroimidazo[1,2-h][1,7]naphthyridine]?
A: Inhibition of acid secretion [1]: 100%; melting point: 178 to 180 °C
